Data on 5 compounds can be found in ChEMBL document CHEMBL5230122, “Natural products and other inhibitors of F1FO ATP synthase” (Eur J Med Chem, 2020).

The subject of assay [1] is SK-OV-3. The assay can be described thus: Cytotoxicity against human SK-OV-3 cells assessed as reduction in cell viability incubated for 72 hrs by WST-8 assay. The conditions noted are these: SK-OV-3, 72 h. The assay is classed as functional, cell-based. For orientation: Formazan colour is commonly taken as a measure of viable cells.
The nature of assay [2]: Cytotoxicity against human ACC-MESO-1 cells assessed as reduction in cell viability incubated for 72 hrs by WST-8 assay. In kind it is functional, cell-based. The conditions noted are these: ACC-MESO-1, 72 h.
Assay [3] relates to Jurkat. The assay can be described thus: Cytotoxicity against human Jurkat cells assessed as reduction in cell viability incubated for 72 hrs by WST-8 assay. The assay is classed as functional, cell-based.
The next assay relates to A549. The assay can be described thus: Anticancer activity against human A549 cells assessed as reduction in cell viability incubated for 72 hrs by MTT assay. The conditions noted are these: A549, 72 h. The assay is classed as functional, cell-based.
Assay [4] relates to MCF7. Description: Anticancer activity against human MCF7 cells assessed as reduction in cell viability incubated for 72 hrs by MTT assay. In kind it is functional, cell-based. The conditions noted are these: MCF7, 72 h.
The subject of a further assay is MDA-MB-231. Description: Anticancer activity against human MDA-MB-231 cells assessed as reduction in cell viability incubated for 72 hrs by MTT assay. The assay is classed as functional, cell-based. The conditions noted are these: MDA-MB-231, 72 h.
The next assay deals with HeLa. The assay can be described thus: Anticancer activity against human HeLa cells assessed as reduction in cell viability incubated for 72 hrs by MTT assay. The assay is classed as functional, cell-based.
Another assay concerns PaTu 8988t. The assay can be described thus: Anticancer activity against human PaTu 8988t cells assessed as reduction in cell viability incubated for 72 hrs by MTT assay. In kind it is functional, cell-based.
For a further assay, the system named is HL-60. Description: Anticancer activity against human HL-60 cells assessed as reduction in cell viability incubated for 72 hrs by CCK-8 assay. The assay is classed as functional, cell-based. The conditions noted are these: HL-60, 72 h.
Assay [5] has as its system MCF7. The assay can be described thus: Anticancer activity against human MCF7 cells assessed as reduction in cell viability incubated for 72 hrs by CCK-8 assay. The conditions noted are these: MCF7, 72 h. In kind it is functional, cell-based.
For a further assay, the system named is NCI-H1299. The assay can be described thus: Anticancer activity against human NCI-H1299 cells assessed as reduction in cell viability incubated for 72 hrs by CCK-8 assay. In kind it is functional, cell-based. The conditions noted are these: NCI-H1299, 72 h.
For another assay, the system named is LoVo. The assay can be described thus: Anticancer activity against human LoVo cells assessed as reduction in cell viability incubated for 72 hrs by CCK-8 assay. In kind it is functional, cell-based.
The subject of assay [6] is SK-OV-3. The assay can be described thus: Anticancer activity against human SK-OV-3 cells assessed as reduction in cell viability incubated for 72 hrs by CellTiter-Glo luminescent cell viability assay. The assay is classed as functional, cell-based. The conditions noted are these: SK-OV-3, 72 h. On the technique in general: In ATP-based viability assays light output follows the ATP content of the culture.

Assay [7] concerns Jurkat. The assay can be described thus: Anticancer activity against human Jurkat cells assessed as reduction in cell viability incubated for 72 hrs by CellTiter-Glo luminescent cell viability assay. In kind it is functional, cell-based.
For the next assay, the system named is HCT-116. Description: Anticancer activity against human HCT-116 cells assessed as reduction in cell viability incubated for 72 hrs by CellTiter-Glo luminescent cell viability assay. The assay is classed as functional, cell-based. The conditions noted are these: HCT-116, 72 h.
A further assay deals with KB 3-1. The assay can be described thus: Anticancer activity against human KB-3-1 cells assessed as reduction in cell viability incubated for 72 hrs by CellTiter-Glo luminescent cell viability assay. The conditions noted are these: KB 3-1, 72 h. The assay is classed as functional, cell-based.
A further assay deals with SW480. The assay can be described thus: Anticancer activity against human SW480 cells assessed as reduction in cell viability incubated for 72 hrs by CellTiter-Glo luminescent cell viability assay. The conditions noted are these: SW480, 72 h. The assay is classed as functional, cell-based.
The test system of the next assay is U-937. The assay can be described thus: Anticancer activity against human U-937 cells assessed as reduction in cell viability incubated for 72 hrs by CellTiter-Glo luminescent cell viability assay. The assay is classed as functional, cell-based. The conditions noted are these: U-937, 72 h.
Assay [8] concerns PC-12. The assay can be described thus: Cytoprotective activity against glutamate induced-toxicity in rat PC-12 cells assessed as reduction in cell death for 24 hrs by MTT assay. In kind it is functional, cell-based. The conditions noted are these: PC-12, 24 h.
Assay [9] concerns PC-12. The assay can be described thus: Cytoprotective activity against KCN induced-toxicity in rat PC-12 cells assessed as reduction in cell death for 24 hrs by MTT assay. In kind it is functional, cell-based. The conditions noted are these: PC-12, 24 h.
A further assay is filed under the species Rattus norvegicus. Description: Inhibition of rat liver mitochondrial F0F1-ATP synthase hydrolytic activity at 5 uM in presence of MgATP. The conditions noted are these: Mitochondria.
Assay [10] in a line: Anticancer activity against rat Ad12-3Y1-W5 cells assessed as reduction in cell viability incubated for 3 days by MTT assay. The conditions noted are these: Ad12-3Y1-W5, 72 h. The assay is classed as functional, cell-based.
The nature of assay [11]: Anticancer activity against rat Ad12-3Y1-Z11 cells assessed as reduction in cell viability incubated for 3 days by MTT assay. The assay is classed as functional, cell-based. The conditions noted are these: Ad12-3Y1-Z11, 72 h.
The nature of assay [12]: Anticancer activity against rat Ad12-3Y1-Z13 cells assessed as reduction in cell viability incubated for 3 days by MTT assay. In kind it is functional, cell-based. The conditions noted are these: Ad12-3Y1-Z13, 72 h.
A short description of assay [13]: Anticancer activity against rat Ad12-3Y1-Z19 cells assessed as reduction in cell viability incubated for 3 days by MTT assay. The assay is classed as functional, cell-based. The conditions noted are these: Ad12-3Y1-Z19, 72 h.
Assay [14] in a line: Anticancer activity against rat E1A-3Y1-1 cells assessed as reduction in cell viability incubated for 3 days by MTT assay. In kind it is functional, cell-based. The conditions noted are these: E1A-3Y1-1, 72 h.
Assay [15] is described as follows: Anticancer activity against rat E1A-3Y1-2 cells assessed as reduction in cell viability incubated for 3 days by MTT assay. The conditions noted are these: E1A-3Y1-2, 72 h. The assay is classed as functional, cell-based.
The nature of assay [16]: Anticancer activity against rat E1A-3Y1-3 cells assessed as reduction in cell viability incubated for 3 days by MTT assay. The assay is classed as functional, cell-based. The conditions noted are these: E1A-3Y1-3, 72 h.
A short description of assay [17]: Anticancer activity against rat SR-3Y1-1 cells assessed as reduction in cell viability incubated for 3 days by MTT assay. The assay is classed as functional, cell-based. The conditions noted are these: SR-3Y1-1, 72 h.
Assay [18] in a line: Anticancer activity against rat SR-3Y1-2 cells assessed as reduction in cell viability incubated for 3 days by MTT assay. In kind it is functional, cell-based. The conditions noted are these: SR-3Y1-2, 72 h.
Assay [19] in a line: Anticancer activity against rat SR-3Y1-3 cells assessed as reduction in cell viability incubated for 3 days by MTT assay. In kind it is functional, cell-based. The conditions noted are these: SR-3Y1-3, 72 h.
Assay [20] is described as follows: Anticancer activity against rat SV-3Y1-C66 cells assessed as reduction in cell viability incubated for 3 days by MTT assay. In kind it is functional, cell-based. The conditions noted are these: SV-3Y1-C66, 72 h.
Assay [21] in a line: Anticancer activity against rat HR-3Y1-1 cells assessed as reduction in cell viability incubated for 3 days by MTT assay. The assay is classed as functional, cell-based. The conditions noted are these: HR-3Y1-1, 72 h.
Assay [22] can be described thus: Anticancer activity against rat HR-3Y1-2 cells assessed as reduction in cell viability incubated for 3 days by MTT assay. In kind it is functional, cell-based. The conditions noted are these: HR-3Y1-2, 72 h.
The nature of assay [23]: Anticancer activity against rat HR-3Y1-3 cells assessed as reduction in cell viability incubated for 3 days by MTT assay. The assay is classed as functional, cell-based. The conditions noted are these: HR-3Y1-3, 72 h.
In assay [24] the test system is SK-OV-3. The assay can be described thus: Anticancer activity against human SK-OV-3 cells assessed as reduction in cell viability incubated for 72 hrs by WST-8 assay. The assay is classed as functional, cell-based. The conditions noted are these: SK-OV-3, 72 h.
The nature of assay [25]: Anticancer activity against human ACC-MESO-1 cells assessed as reduction in cell viability incubated for 72 hrs by WST-8 assay. The conditions noted are these: ACC-MESO-1, 72 h. In kind it is functional, cell-based.
Assay [26] has as its system Jurkat. Description: Anticancer activity against human Jurkat cells assessed as reduction in cell viability incubated for 72 hrs by WST-8 assay. The assay is classed as functional, cell-based.

By IC50 is commonly meant the concentration that gives 50% inhibition. As for `CC[C@H](C)[C@@H]1NC(=O)[C@H](NC(=O)[C@H](C)NC(=S)[C@H](C)NC(=S)[C@H](C)NC(=S)[C@H](C)NC(=S)[C@H](CCSC)NC(=S)[C@@H](NC(=O)C(C)O)C(C)C)CS/C=C\NC(=O)[C@H]([C@@H](O)c2cn(C)c[n+]2C)NC(=O)[C@H](CC(C)C)NC(=O)[C@H](C)NC1=O` (stereo partly drawn), the IC50 in the assay on SK-OV-3 [1] is 10.8 µM; in assay [2] it was 14.3 µM; in the assay on Jurkat [3], 5.4 µM.
On to `CCC(C)[C@H](NC(=S)[C@@H](NC(=O)C(C)O)C(C)C)C(=O)NCC(=O)N[C@@H](Cc1ccccc1O)C(=S)N[C@@H](C)C(=S)N[C@H](C(=O)N[C@H]1C(=O)N[C@@H]([C@@H](C)CC)C(=O)N[C@@H](C)C(=O)N[C@@H](C(C)C)C(=O)N[C@@H](Cc2cn(C)c[n+]2C)C(=O)N/C=C\SC1C)C(C)C` (stereo partly drawn), for which the IC50 worked out at 0.048 µM with A549; 0.059 µM in the assay on MCF7 [4]; 0.072 µM in the assay with MDA-MB-231; 0.05 µM in the assay on HeLa; 0.065 µM in the assay with PaTu 8988t.
Consider `CC(=O)C(=O)N[C@H](C(=S)N[C@@H](CC[S+](C)[O-])C(=S)N[C@@H](C)C(=O)N[C@@H](C)C(=S)N[C@@H](C)C(=S)N[C@@H](C)C(=O)N[C@H]1C(=O)N[C@@H](C(C)C)C(=O)N[C@@H](C)C(=O)N[C@@H](Cc2ccccc2)C(=O)N[C@@H](C(O)c2cn(C)c[n+]2C)C(=O)N/C=C\SC1C)C(C)C` (stereo partly drawn), for which the IC50 in the assay on HL-60 is 1.47 µM; with MCF7 [5] it was 0.83 µM; with NCI-H1299, 5.02 µM; in the assay on LoVo, 1.18 µM; with SK-OV-3 [6], 20.9 µM; with Jurkat [7], 5.28 µM. The IC50 with HCT-116 is 0.51 µM; in the assay on KB 3-1 it was 4.49 µM; with SW480, 12.2 µM; in the assay with U-937, 16.9 µM.
For orientation: inhibition means the share of the control response that was lost under treatment. `CCOC(=O)C1=C(C)NC2=C(C=Nc3ccccc3N2)[C@@H]1c1ccccc1[N+](=O)[O-]`: the IC50 stood at 0.029 µM in the assay with PC-12 [8] and 0.008 µM with PC-12 [9]. In addition, the inhibition in the assay filed under Rattus norvegicus amounted to 67%.
Consider `CC[C@H](C)[C@@H]1NC(=O)[C@H](NC(=O)[C@H](C)NC(=S)[C@H](C)NC(=S)[C@H](C)NC(=S)[C@H](C)NC(=S)[C@H](CCSC)NC(=S)[C@@H](NC(=O)C(C)(O)CC(C)=O)C(C)C)CS/C=C\NC(=O)[C@H](C(O)c2cn(C)c[n+]2C)NC(=O)[C@H](CC(C)C)NC(=O)[C@H](C)NC1=O` (stereo partly drawn), for which the IC50 in assay [10] turned out to be 0.0039 µg/mL; in assay [11] it was 0.0039 µg/mL; in [12], 0.0039 µg/mL; in assay [13], 0.0039 µg/mL; in assay [14], 0.032 µg/mL; in assay [15] it was 0.032 µg/mL. Further, the IC50 in assay [16] was 0.032 µg/mL; in [17], 0.63 µg/mL; in [18], 0.63 µg/mL; in assay [19], 0.63 µg/mL; in [20], 0.46 µg/mL; in [21], 0.2 µg/mL. For the same compound, the IC50 was 0.2 µg/mL in assay [22]; 0.2 µg/mL in assay [23]; 38 µM with SK-OV-3 [24]; 27.8 µM in [25]; 12.5 µM in the assay on Jurkat [26].
